Results as given in patent publication US20050282159A1, “Rpob gene of streptomyces, primer specific to streptomyces, and identification method of streptomyces having rifampin resistance or sensitivity by using the same” (priority 2001, published 2005).

Tests used:
S. cinerous KCTC 9066 = assay: rifampin-sensitive test on Bennet solid media; assay type: cell-based; parameters: key to genotype (rifampin-resistance or susceptibility): “(+)” indicates a genotype with rifampin-resistance; “(−)” indicates a genotype with rifampin-susceptibility
Description: (§1) The 47 strains were respectively cultured at 28° C. for 72 hr in Bennet liquid media. The culture solution was then inoculated on Bennet solid media (yeast extract 1 g/L, Beef extract 1 g/L, Tryptone 2 g/L, Glycerol 10 g/L, Agar 15 g/L) containing 25 ug/ml rifampin, and after incubation for 72 hr, rifampin-resistance was tested.

S. alboviridis KCTC 9750 = assay: rifampin-sensitive test on Bennet solid media; assay type: cell-based; parameters: key to genotype (rifampin-resistance or susceptibility): “(+)” indicates a genotype with rifampin-resistance; “(−)” indicates a genotype with rifampin-susceptibility
Description: as §1

[1] = tested on: S. albovinaceous KCCM 40177; conditions: TCG (TCC) genotype
Description: (§2) The primer sets of SEQ ID NOs: 1 and 2 were used to amplify rpoB genes of 60 strains, and nucleotides of the […] products were analyzed with an automatic sequencer. SRPOF1 as a forward primer and SRPOR1 as a backward primer were used.

S. kurssanovi KCCM 40527 = conditions: TCG (TCC) genotype
Description: as §2

S. anulatus KCCM 40190 = conditions: AAC genotype
Description: as §2

[2] = tested on: S. ambofaciens KCCM 40182; conditions: AAC genotype
Description: as §2

S. kifunensis KCTC 9734 = conditions: TCG (TCC) genotype
Description: as §2

[3] = tested on: S. flavovirens KCCM 40165; conditions: TCG (TCC) genotype
Description: as §2

S. fumanus KCCM 40522 = conditions: TCG (TCC) genotype
Description: as §2

[4] = tested on: S. aburaviensis KCTC 9663; conditions: TCG (TCC) genotype
Description: as §2

[5] = tested on: S. disatochromogenes KCCM 40449; conditions: TCG (TCC) genotype
Description: as §2

S. halstedii KCCM 40613 = conditions: TCG (TCC) genotype
Description: as §2

[6] = tested on: S. hachijoense KCCM 32306; conditions: TCG (TCC) genotype
Description: as §2

S. cremeus KCCM 40509 = conditions: TCG (TCC) genotype
Description: as §2

[7] = tested on: S. chromogenes KCCM 40727; conditions: TCG (TCC) genotype
Description: as §2

[8] = tested on: S. antibioticus KCTC 1137; conditions: TCG (TCC) genotype
Description: as §2

S. eurythermus KCTC 9731 = conditions: TCG (TCC) genotype
Description: as §2

S. fimbriatus KCCM 11888 = conditions: TCG (TCC) genotype
Description: as §2

S. azureus KCCM 40485 = conditions: TCG (TCC) genotype
Description: as §2

S. cellulose KCTC 9703 = conditions: AAC genotype
Description: as §2

[9] = tested on: S. cinnamoneus KCCM 40572; conditions: TCG (TCC) genotype
Description: as §2

[10] = tested on: S. yokosukanens KCCM 40633; conditions: AAC genotype
Description: as §2

S. lividans KCTC 1154 = conditions: AAC genotype
Description: as §2

S. chivaensis KCTC 9786 = conditions: AAC genotype
Description: as §2

[11] = tested on: S. citreofluorescens KCTC 9710; conditions: TCG (TCC) genotype
Description: as §2

S. candidus KCTC 9020 = conditions: TCG (TCC) genotype
Description: as §2

S. gougeroti KCCM 40681 = conditions: TCG (TCC) genotype
Description: as §2

S. althioticus KCTC 9752 = conditions: AAC genotype
Description: as §2

[12] = tested on: S. xanthocidicus KCCM 40286; conditions: AAC genotype
Description: as §2

S. fulvissimus KCTC 9773 = conditions: TCG (TCC) genotype
Description: as §2

[13] = tested on: S. griseolosporeus KCTC 9791; conditions: TCG (TCC) genotype
Description: as §2

[14] = tested on: S. griseostramineus KCCM 40526; conditions: TCG (TCC) genotype
Description: as §2

S. tendae KCCM 40105 = conditions: AAC genotype
Description: as §2

S. piosus KCCM 40480 = conditions: AAC genotype
Description: as §2

S. albaduncus KCTC 1741 = conditions: AAC genotype
Description: as §2

[15] = tested on: S. violaceoruber KCTC 9787; conditions: AAC genotype
Description: as §2

S. baldacii KCCM 41326 = conditions: TCG (TCC) genotype
Description: as §2

S. rubiginosus KCTC 9042 = conditions: AAC genotype
Description: as §2

[16] = tested on: S. coeruleofuscus KCCM 40506; conditions: TCG (TCC) genotype
Description: as §2

[17] = tested on: S. californicus KCCM 40605; conditions: TCG (TCC) genotype
Description: as §2

S. humiferus KCTC 9116 = conditions: AAC genotype
Description: as §2

CO[C@H]1/C=C/O[C@@]2(C)Oc3c(C)c(O)c4c(O)c(c(/C=N/N5CCN(C)CC5)c(O)c4c3C2=O)NC(=O)/C(C)=C\C=C\[C@H](C)[C@H](O)[C@@H](C)[C@@H](O)[C@@H](C)[C@H](OC(C)=O)[C@@H]1C [rifampin]
growth in media containing rifampin (S. cinerous KCTC 9066; S. cinerous (KCTC 9066), Bennet solid media, FIG. 7 (A)): generated colonies | genotype (rifampin-resistance or susceptibility) (S. cinerous KCTC 9066; S. cinerous KCTC 9066, AAC genotype, 25 ug/ml rifampin, 72 hr): + | growth in media containing rifampin (S. alboviridis KCTC 9750; S. alboviridis (KCTC 9750), Bennet solid media, FIG. 7 (B)): did not show growth | genotype (rifampin-resistance or susceptibility) (S. alboviridis KCTC 9750; S. alboviridis KCTC 9750, TCG (TCC) genotype, 25 ug/ml rifampin, 72 hr): − | genotype (rifampin-resistant or -sensitive strain) [1]: − | genotype (rifampin-resistant or -sensitive strain) (S. kurssanovi KCCM 40527): − | genotype (rifampin-resistant or -sensitive strain) (S. anulatus KCCM 40190): + | genotype (rifampin-resistant or -sensitive strain) [2]: + | genotype (rifampin-resistant or -sensitive strain) (S. kifunensis KCTC 9734): − | genotype (rifampin-resistant or -sensitive strain) [3]: − | genotype (rifampin-resistant or -sensitive strain) (S. fumanus KCCM 40522): − | genotype (rifampin-resistant or -sensitive strain) [4]: − | genotype (rifampin-resistant or -sensitive strain) [5]: − | genotype (rifampin-resistant or -sensitive strain) (S. halstedii KCCM 40613): − | genotype (rifampin-resistant or -sensitive strain) [6]: − | genotype (rifampin-resistant or -sensitive strain) (S. cremeus KCCM 40509): − | genotype (rifampin-resistant or -sensitive strain) [7]: − | genotype (rifampin-resistant or -sensitive strain) [8]: − | genotype (rifampin-resistant or -sensitive strain) (S. eurythermus KCTC 9731): − | genotype (rifampin-resistant or -sensitive strain) (S. fimbriatus KCCM 11888): − | genotype (rifampin-resistant or -sensitive strain) (S. azureus KCCM 40485): − | genotype (rifampin-resistant or -sensitive strain) (S. cellulose KCTC 9703): + | genotype (rifampin-resistant or -sensitive strain) [9]: − | genotype (rifampin-resistant or -sensitive strain) [10]: + | genotype (rifampin-resistant or -sensitive strain) (S. lividans KCTC 1154): + | genotype (rifampin-resistant or -sensitive strain) (S. chivaensis KCTC 9786): + | genotype (rifampin-resistant or -sensitive strain) [11]: − | genotype (rifampin-resistant or -sensitive strain) (S. candidus KCTC 9020): − | genotype (rifampin-resistant or -sensitive strain) (S. gougeroti KCCM 40681): − | genotype (rifampin-resistant or -sensitive strain) (S. althioticus KCTC 9752): + | genotype (rifampin-resistant or -sensitive strain) [12]: + | genotype (rifampin-resistant or -sensitive strain) (S. fulvissimus KCTC 9773): − | genotype (rifampin-resistant or -sensitive strain) [13]: − | genotype (rifampin-resistant or -sensitive strain) [14]: − | genotype (rifampin-resistant or -sensitive strain) (S. tendae KCCM 40105): + | genotype (rifampin-resistant or -sensitive strain) (S. piosus KCCM 40480): + | genotype (rifampin-resistant or -sensitive strain) (S. albaduncus KCTC 1741): + | genotype (rifampin-resistant or -sensitive strain) [15]: + | genotype (rifampin-resistant or -sensitive strain) (S. baldacii KCCM 41326): − | genotype (rifampin-resistant or -sensitive strain) (S. rubiginosus KCTC 9042): + | genotype (rifampin-resistant or -sensitive strain) [16]: − | genotype (rifampin-resistant or -sensitive strain) [17]: − | genotype (rifampin-resistant or -sensitive strain) (S. humiferus KCTC 9116): +
